# Patent US20130217678A1, “PHARMACEUTICAL AGENT COMPRISING QUINOLONE COMPOUND” (OTSUKA PHARMACEUTICAL CO., LTD., priority 2008, published 2013)
row,SMILES,melting point
1,COCCN(C)c1ccc(C)c2c(=O)c(-c3ccc(OC)cc3)c[nH]c12.Cl,90 to 93 °C
2,CCCOc1cccc2c(=O)c(-c3cccc4ccccc34)c[nH]c12,255 to 256 °C
3,"CCCOc1cccc2c(=O)c(-c3ccc(OC)c(OC)c3)c[nH]c12 [Example 14, 3-(3,4-Dimethoxyphenyl)-8-propoxy-1H-quinolin-4-one]",210 to 211 °C
4,"CCCOc1cccc2c(=O)c(-c3ccncc3)c[nH]c12 [Example 15, 8-Propoxy-3-pylidine-4-yl-1H-quinolin-4-one]",259 to 260 °C
5,"CCCOc1cccc2c(=O)c(-c3ccc(OC)cc3OC)c[nH]c12 [Example 16, 3-(2,4-Dimethoxyphenyl)-8-propoxy-1H-quinolin-4-one]",231 to 232 °C
6,"CCCOc1cccc2c(=O)c(-c3ccc(OC)cc3C)c[nH]c12 [Example 19, 3-(4-Methoxy-2-methylphenyl)-8-propoxy-1H-quinolin-4-one]",214 to 215 °C
7,"CCCOc1ccc(-c2ccccc2)c2c(=O)c(-c3ccc(OC)cc3)c[nH]c12 [Example 22, 3-(4-Methoxyphenyl)-5-phenyl-8-propoxy-1H-quinolin-4-one]",186 to 187 °C
8,"CCOc1ccc(OCC)c2c(=O)c(-c3ccc(OC)cc3)c[nH]c12 [Example 25, 5,8-Diethoxy-3-(4-methoxyphenyl)-1H-quinolin-4-one]",182 to 183 °C
9,"CCCOc1cccc2c(=O)c(-c3ccc(Cl)cc3Cl)c[nH]c12 [Example 27, 3-(2,4-Dichlorophenyl)-8-propoxy-1H-quinolin-4-one]",189 °C
10,"CCCOc1cccc2c(=O)c(-c3c(Cl)cccc3Cl)c[nH]c12 [Example 28, 3-(2,6-Dichlorophenyl)-8-propoxy-1H-quinolin-4-one]",193 °C
11,"CCCOc1cccc2c(=O)c(-c3ccc(F)cc3Cl)c[nH]c12 [Example 29, 3-(2-Chloro-4-fluorophenyl)-8-propoxy-1H-quinolin-4-one]",230 °C
12,"CCCOc1cccc2c(=O)c(-c3c(F)cccc3Cl)c[nH]c12 [Example 30, 3-(2-Chloro-6-fluorophenyl)-8-propoxy-1H-quinolin-4-one]",250 °C
13,"CCCOc1cccc2c(=O)c(-c3cc(OC)ccc3OC)c[nH]c12 [Example 31, 3-(2,5-Dimethoxyphenyl)-8-propoxy-1H-quinolin-4-one]",175 °C
14,"CCCOc1cccc2c(=O)c(-c3c(F)c(F)c(F)c(F)c3F)c[nH]c12 [Example 33, 3-Pentafluorophenyl-8-propoxy-1H-quinolin-4-one]",160 °C
15,"CCOc1cc(NC(=O)c2ccccc2)c(OCC)c2c(=O)c(-c3ccc(OC)cc3)c[nH]c12 [Example 35, N-[5,8-Diethoxy-3-(4-methoxyphenyl)-4-oxo-1,4-dihydroquinolin-6-yl]-benzamide]",120 to 121 °C
16,"CCCOc1cc(C)cc2c(=O)c(-c3ccc(OC)cc3)c[nH]c12 [Example 36, 3-(4-Methoxyphenyl)-6-methyl-8-propoxy-1H-quinolin-4-one]",161 to 162 °C
17,"CCCOc1cccc2c(=O)c(-c3ccccc3OC)c[nH]c12 [Example 39, 3-(2-Methoxyphenyl)-8-propoxy-1H-quinolin-4-one]",218 to 220 °C
18,"CCCOc1ccc(OC)c2c(=O)c(-c3ccccc3OC)c[nH]c12 [Example 40, 5-Methoxy-3-(2-methoxyphenyl)-8-propoxy-1H-quinolin-4-one]",239 to 241 °C
19,"CCCOc1cccc2c(=O)c(-c3cccc(OC)c3OC)c[nH]c12 [Example 41, 3-(2,3-Dimethoxyphenyl)-8-propoxy-1H-quinolin-4-one]",253 to 255 °C
20,"CCCOc1ccc(OC)c2c(=O)c(-c3cccc(OC)c3OC)c[nH]c12 [Example 42, 3-(2,3-Dimethoxyphenyl)-5-methoxy-8-propoxy-1H-quinolin-4-one]",145 to 148 °C
21,"CCCOc1ccc(OC)c2c(=O)c(-c3cc(OC)ccc3OC)c[nH]c12 [Example 43, 3-(2,5-Dimethoxyphenyl)-5-methoxy-8-propoxy-1H-quinolin-4-one]",179 to 180 °C
22,"CCOc1ccc(OC)c2c(=O)c(-c3ccc(OC)cc3)c[nH]c12 [Example 45, 8-Ethoxy-5-methoxy-3-(4-methoxyphenyl)-1H-quinolin-4-one]",117 to 119 °C
23,"COc1ccc(-c2c[nH]c3c(OC(C)C)ccc(OC)c3c2=O)cc1 [Example 46, 8-Isopropoxy-5-methoxy-3-(4-methoxyphenyl)-1H-quinolin-4-one]",213 to 214 °C
24,"COc1ccc(-c2c[nH]c3c(OCC(C)C)ccc(OC)c3c2=O)cc1 [Example 47, 8-Isobutoxy-5-methoxy-3-(4-methoxyphenyl)-1H-quinolin-4-one]",242 to 244 °C
25,"CCCOc1c(F)ccc2c(=O)c(-c3ccc(OC)cc3)c[nH]c12 [Example 48, 7-Fluoro-3-(4-methoxyphenyl)-8-propoxy-1H-quinolin-4-one]",160 to 161 °C

# Now from value to compound:
row,melting point,SMILES
1,169 to 170 °C,"CCCOc1ccc(CC)c2c(=O)c(-c3ccc(OC)cc3)c[nH]c12 [Example 49, 5-Ethyl-3-(4-methoxyphenyl)-8-propoxy-1H-quinolin-4-one]"
2,201 to 202 °C,"CCCOc1ccc(C)c2c(=O)c(-c3ccccc3C)c[nH]c12 [Example 50, 5-Methyl-8-propoxy-3-o-tolyl-1H-quinolin-4-one]"
3,221 to 223 °C,"CCCOc1ccc(C)c2c(=O)c(-c3ccccc3OC)c[nH]c12 [Example 52, 3-(2-Methoxyphenyl)-5-methyl-8-propoxy-1H-quinolin-4-one]"
4,170 to 171 °C,"CCCOc1ccc(C)c2c(=O)c(-c3cccc(OC)c3OC)c[nH]c12 [Example 53, 3-(2,3-Dimethoxyphenyl)-5-methyl-8-propoxy-1H-quinolin-4-one]"
5,200 to 203 °C,"CCCOc1cccc2c(=O)c(-c3ccccc3Br)c[nH]c12 [Example 54, 3-(2-Bromophenyl)-8-propoxy-1H-quinolin-4-one]"
6,107 to 108 °C,"CCCOc1cccc2c(=O)c(-c3cccc(Br)c3)c[nH]c12 [Example 55, 3-(3-Bromophenyl)-8-propoxy-1H-quinolin-4-one]"
7,81 to 84 °C,"CCCOc1cccc2c(=O)c(-c3cccc(-c4ccc(OC)cc4OC)c3)c[nH]c12 [Example 56, 3-(2′,4′-Dimethoxybiphenyl-3-yl)-8-propoxy-1H-quinolin-4-one]"
8,103 to 106 °C,"CCCOc1ccc(C)c2c(=O)c(-c3ccc(Cl)cc3Cl)c[nH]c12 [Example 57, 3-(2,4-Dichlorophenyl)-5-methyl-8-propoxy-1H-quinolin-4-one]"
9,189 to 193 °C,"CCCOc1cccc2c(=O)c(-c3cccc(-c4ccc(C)cc4)c3)c[nH]c12 [Example 59, 3-(4′-Methylbiphenyl-3-yl)-8-propoxy-1H-quinolin-4-one]"
10,104 to 105 °C,"CCCOc1ccc(C)c2c(=O)c(-c3cccs3)c[nH]c12 [Example 61, 5-Methyl-8-propoxy-3-thiophen-2-yl-1H-quinolin-4-one]"
11,106 to 109 °C,"CCCOc1ccc(C)c2c(=O)c(-c3cn(C)c4ccccc34)c[nH]c12 [Example 62, 5-Methyl-3-(1-methyl-1H-indol-3-yl)-8-propoxy-1H-quinolin-4-one]"
12,90 to 92 °C,"CCCOc1ccc(C)c2c(=O)c(-c3sc4ccccc4c3C)c[nH]c12 [Example 66, 5-Methyl-3-(3-methylbenzo[b]thiophen-2-yl)-8-propoxy-1H-quinolin-4-one]"
13,182 to 183 °C,"COc1ccc(-c2c[nH]c3c(OCC4CC4)ccc(C)c3c2=O)cc1 [Example 69, 8-Cyclopropylmethoxy-3-(4-methoxyphenyl)-5-methyl-1H-quinolin-4-one]"
14,258 to 260 °C,"CCc1nccn1-c1ccc(C)c2c(=O)c(-c3ccc(OC)cc3)c[nH]c12 [Example 71, 8-(2-Ethylimidazol-1-yl)-3-(4-methoxyphenyl)-5-methyl-1H-quinolin-4-one]"
15,159 to 161 °C,"CCCN(C)c1ccc(C)c2c(=O)c(-c3ccc(OC)cc3)c[nH]c12 [Example 72, 3-(4-Methoxyphenyl)-5-methyl-8-(methyl-propyl-amino)-1H-quinolin-4-one]"
16,260 to 263 °C,"COc1ccc(-c2c[nH]c3c(N4CCOCC4)ccc(C)c3c2=O)cc1 [Example 73, 3-(4-Methoxyphenyl)-5-methyl-8-morpholin-4-yl-1H-quinolin-4-one]"
17,265 to 267 °C,"CCCOc1ccc(C)c2c(=O)c(-c3ccc(O)cc3)c[nH]c12 [Example 74, 3-(4-Hydroxyphenyl)-5-methyl-8-propoxy-1H-quinolin-4-one]"
18,270 to 275 °C (dec.),"Cc1ccc(O)c2[nH]cc(-c3ccc(O)cc3)c(=O)c12 [Example 75, 8-Hydroxy-3-(4-hydroxyphenyl)-5-methyl-1H-quinolin-4-one]"
19,186 to 188 °C,"CCCCc1ccc(C)c2c(=O)c(-c3ccc(OC)cc3)c[nH]c12 [Example 76, 8-Butyl-3-(4-methoxyphenyl)-5-methyl-1H-quinolin-4-one]"
20,214 to 215 °C,"COc1ccc(-c2c[nH]c3c(N4CCN(C)CC4)ccc(C)c3c2=O)cc1 [Example 77, 3-(4-Methoxyphenyl)-5-methyl-8-(4-methylpiperazin-1-yl)-1H-quinolin-4-one]"
21,191 to 192 °C,"CCCOc1ccc(C)c2c(=O)c(-c3ccc(OC)cc3OCC)c[nH]c12 [Example 78, 3-(2-Ethoxy-4-methoxyphenyl)-5-methyl-8-propoxy-1H-quinolin-4-one]"
22,198 to 199 °C,"COc1ccc(-c2c[nH]c3c(OCC4CC4)ccc(C)c3c2=O)c(F)c1 [Example 79, 8-Cyclopropylmethoxy-3-(2-fluoro-4-methoxyphenyl)-5-methyl-1H-quinolin-4-one]"
23,156 to 158 °C,"CCCOc1ccc(C)c2[nH]cc(-c3ccc(OC)cc3)c(=O)c12 [Example 80, 3-(4-Methoxyphenyl)-8-methyl-5-propoxy-1H-quinolin-4-one]"
24,145 to 147 °C,"CCCOc1ccc(Cl)c2[nH]cc(-c3ccc(OC)cc3)c(=O)c12 [Example 81, 8-Chloro-3-(4-methoxyphenyl)-5-propoxy-1H-quinolin-4-one]"
